{
  "source": "ChEMBL document CHEMBL4765481",
  "about": "“Sialyltransferase Inhibitors Suppress Breast Cancer Metastasis” (J Med Chem, 2021)",
  "key": {"MDA-MB-231 [1]": {"tested_on": "MDA-MB-231", "experiment": "Inhibition of Sialyltransferase in human MDA-MB-231 cells assessed as decrease p-talin-1 association with integrins beta1 and beta 3 after 48 hrs by immunofluorescence and coimmunoprecipitation assay", "assay_type": "cell-based"}, "[2]": {"molecular_target": "T1, CMP-N-acetylneuraminate-beta-1,4-galactoside alpha-2,3-sialyltransferase (Rattus norvegicus, UniProt Q02734)", "T1 sequence (Q02734 whole entry)": "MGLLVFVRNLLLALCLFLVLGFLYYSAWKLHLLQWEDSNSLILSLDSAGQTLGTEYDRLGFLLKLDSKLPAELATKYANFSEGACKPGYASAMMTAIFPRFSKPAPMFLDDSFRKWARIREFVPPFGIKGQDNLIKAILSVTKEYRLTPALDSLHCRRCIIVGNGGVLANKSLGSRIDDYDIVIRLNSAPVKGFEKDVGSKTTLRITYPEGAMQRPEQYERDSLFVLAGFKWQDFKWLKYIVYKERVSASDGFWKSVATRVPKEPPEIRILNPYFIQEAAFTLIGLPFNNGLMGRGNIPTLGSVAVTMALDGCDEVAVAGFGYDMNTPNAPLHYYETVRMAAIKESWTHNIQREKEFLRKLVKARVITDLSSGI", "experiment": "Inhibition of rat alpha-2,3-N-ST3GALIII assessed as reduction in sialylated-product formation using Gal-beta1-4Glc and CMP-NeuSAc incubated for 1.5 hrs by reverse-phase HPLC analysis"}, "[3]": {"molecular_target": "T2, Beta-galactoside alpha-2,6-sialyltransferase 1 (Homo sapiens, UniProt P15907)", "T2 sequence (P15907 whole entry)": "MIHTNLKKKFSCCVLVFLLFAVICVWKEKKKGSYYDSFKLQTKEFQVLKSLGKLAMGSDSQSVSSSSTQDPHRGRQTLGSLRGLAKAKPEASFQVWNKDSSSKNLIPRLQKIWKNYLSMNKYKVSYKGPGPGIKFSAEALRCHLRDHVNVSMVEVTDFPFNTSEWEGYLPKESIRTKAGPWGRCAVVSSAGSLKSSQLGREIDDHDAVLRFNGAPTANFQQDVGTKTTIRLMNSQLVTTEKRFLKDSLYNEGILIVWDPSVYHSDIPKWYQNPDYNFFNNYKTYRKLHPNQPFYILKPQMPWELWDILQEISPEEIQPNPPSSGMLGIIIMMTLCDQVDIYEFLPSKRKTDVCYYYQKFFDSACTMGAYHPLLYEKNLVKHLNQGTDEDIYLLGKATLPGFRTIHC", "experiment": "Inhibition of human alpha-2,6-ST6GAL1 assessed as reduction in sialylated-product formation using Gal-beta1-4GlcNac and CMP-NeuSAc incubated for 15 mins by reverse-phase HPLC analysis"}, "[4]": {"molecular_target": "T3, Sialyltransferase ST3Gal-I (Rattus norvegicus) (UniProt Q6H8N0)", "T3 sequence (whole entry)": "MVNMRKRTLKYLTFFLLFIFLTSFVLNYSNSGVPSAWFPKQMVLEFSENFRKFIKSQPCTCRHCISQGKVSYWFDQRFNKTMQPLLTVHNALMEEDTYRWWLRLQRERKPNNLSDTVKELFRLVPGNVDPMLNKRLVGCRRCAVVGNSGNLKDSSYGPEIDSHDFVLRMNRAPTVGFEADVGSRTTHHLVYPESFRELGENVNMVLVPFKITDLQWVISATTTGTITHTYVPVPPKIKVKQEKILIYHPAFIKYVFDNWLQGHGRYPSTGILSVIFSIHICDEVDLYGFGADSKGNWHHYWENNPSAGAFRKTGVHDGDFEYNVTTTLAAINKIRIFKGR", "experiment": "Inhibition of rat alpha-2,3-O-ST3GALI assessed as reduction in sialylated-product formation at 500 uM using p-nitrophenyl T-antigen and CMP-NeuSAc incubated for 15 mins by reverse-phase HPLC analysis relative to control"}, "[5]": {"molecular_target": "T3, Sialyltransferase ST3Gal-I (Rattus norvegicus)", "experiment": "Inhibition of rat alpha-2,3-O-ST3GALI assessed as reduction in sialylated-product formation at 1 mM using p-nitrophenyl T-antigen and CMP-NeuSAc incubated for 15 mins by reverse-phase HPLC analysis relative to control"}, "Rattus norvegicus [6]": {"species_on_record": "Rattus norvegicus", "experiment": "Selectivity ratio of inhibition of rat alpha-2,3-O-ST3GALI at 500 uM to IC50 for inhibition of rat alpha-2,3-N-ST3GALIII"}, "Rattus norvegicus [7]": {"species_on_record": "Rattus norvegicus", "experiment": "Selectivity ratio of inhibition of rat alpha-2,3-O-ST3GALI at 1000 uM to IC50 for inhibition of rat alpha-2,3-N-ST3GALIII"}, "[8]": {"experiment": "Selectivity ratio of IC50 for of inhibition of rat alpha-2,3-O-ST3GALI to IC50 for inhibition of human alpha-2,6-ST6GAL1"}, "[9]": {"experiment": "Toxicity in human MDA-MB-231 cells assessed as cell survival at >60 uM relative to control", "assay_type": "cell-based", "conditions": "read-out: Survival"}, "MDA-MB-231 [10]": {"tested_on": "MDA-MB-231", "experiment": "Inhibition of serum-induced cell migration of human MDA-MB-231 cells incubated for 16 hrs by Boyden chamber assay", "assay_type": "functional, cell-based", "conditions": "MDA-MB-231, 16 h"}, "MDA-MB-231 [11]": {"tested_on": "MDA-MB-231", "experiment": "Inhibition of serum-induced cell migration of human MDA-MB-231 cells at 20 uM incubated for 16 hrs by Boyden chamber assay", "assay_type": "functional, cell-based"}, "MDA-MB-231 [12]": {"tested_on": "MDA-MB-231", "experiment": "Inhibition of Sialyltransferase in human MDA-MB-231 cells assessed as suppression of sialylation of integrin subunit beta1/beta3/beta4/beta5 at 10 to 20 um after 48 hrs by Western blot analysis", "assay_type": "cell-based", "conditions": "dose 10-20 µM"}, "MDA-MB-231 [13]": {"tested_on": "MDA-MB-231", "experiment": "Inhibition of Sialyltransferase in human MDA-MB-231 cells assessed as reduction in integrin isoforms expression (alphaV/alpha5/beta1/beta3/beta4/beta5) at 10 to 20 uM incubated for 48 hrs by immunoblot analysis", "assay_type": "cell-based", "conditions": "dose 10-20 µM"}, "MDA-MB-231 [14]": {"tested_on": "MDA-MB-231", "experiment": "Inhibition of Sialyltransferase in human MDA-MB-231 cells assessed as reduction in FAK Tyr397 phosphorylation level at 10 to 20 uM incubated for 48 hrs by immunoblot analysis", "assay_type": "cell-based", "conditions": "dose 10-20 µM"}, "MDA-MB-231 [15]": {"tested_on": "MDA-MB-231", "experiment": "Inhibition of Sialyltransferase in human MDA-MB-231 cells assessed as reduction in FAK Tyr576/577 phosphorylation level at 10 to 20 uM incubated for 48 hrs by immunoblot analysis", "assay_type": "cell-based", "conditions": "dose 10-20 µM"}, "MDA-MB-231 [16]": {"tested_on": "MDA-MB-231", "experiment": "Inhibition of Sialyltransferase in human MDA-MB-231 cells assessed as reduction in FAK Tyr925 phosphorylation level at 10 to 20 uM incubated for 48 hrs by immunoblot analysis", "assay_type": "cell-based", "conditions": "dose 10-20 µM"}, "MDA-MB-231 [17]": {"tested_on": "MDA-MB-231", "experiment": "Inhibition of Sialyltransferase in human MDA-MB-231 cells assessed as reduction in paxillin Tyr118 phosphorylation level at 10 to 20 uM incubated for 48 hrs by immunoblot analysis", "assay_type": "cell-based", "conditions": "dose 10-20 µM"}, "MDA-MB-231 [18]": {"tested_on": "MDA-MB-231", "experiment": "Inhibition of Sialyltransferase in human MDA-MB-231 cells assessed as reduction in IKKalpha/beta Ser176/180 phosphorylation level at 10 to 20 uM incubated for 48 hrs by immunoblot analysis", "assay_type": "cell-based", "conditions": "dose 10-20 µM"}, "MDA-MB-231 [19]": {"tested_on": "MDA-MB-231", "experiment": "Inhibition of Sialyltransferase in human MDA-MB-231 cells assessed as reduction in IkappaB-alpha Ser32 phosphorylation level at 10 to 20 uM incubated for 48 hrs by immunoblot analysis", "assay_type": "cell-based", "conditions": "dose 10-20 µM"}, "MDA-MB-231 [20]": {"tested_on": "MDA-MB-231", "experiment": "Inhibition of Sialyltransferase in human MDA-MB-231 cells assessed as reduction in NFkappaB Ser536 phosphorylation level at 10 to 20 uM incubated for 48 hrs by immunoblot analysis", "assay_type": "cell-based", "conditions": "dose 10-20 µM"}, "[21]": {"experiment": "Apparent permeability at pH 7.4 by PAMPA"}, "MDA-MB-231 [22]": {"tested_on": "MDA-MB-231", "experiment": "Antitumor activity against luciferase-tagged human MDA-MB-231 cells xenografted in BALB/c mouse assessed as induction of tumor suppression at 10 mg/kg/3 days, ip measured after 50 days", "assay_type": "functional, organism-based", "conditions": "time 50.0 day"}, "MDA-MB-231 [23]": {"tested_on": "MDA-MB-231", "experiment": "Antitumor activity against luciferase-tagged human MDA-MB-231 cells xenografted in BALB/c mouse assessed as induction of delayed lung metastasis at 10 mg/kg/3 days, ip measured after 50 days", "assay_type": "functional, organism-based", "conditions": "time 50.0 day"}, "MDA-MB-231 [24]": {"tested_on": "MDA-MB-231", "experiment": "Antitumor activity against luciferase-tagged human MDA-MB-231 cells xenografted in BALB/c mouse assessed as reduction in number of metastatic foci in lungs at 10 mg/kg/3 days, ip measured after 50 days by histological analysis", "assay_type": "functional, organism-based", "conditions": "time 50.0 day"}, "MDA-MB-231 [25]": {"tested_on": "MDA-MB-231", "experiment": "Antitumor activity against luciferase-tagged human MDA-MB-231 cells xenografted in BALB/c mouse assessed as reduction in metastatic nodules in lymph node at 10 mg/kg/3 days, ip measured after 50 days by H and E staining based histological analysis", "assay_type": "functional, organism-based", "conditions": "time 50.0 day"}, "MDA-MB-231 [26]": {"tested_on": "MDA-MB-231", "experiment": "Antiangiogenesis activity against luciferase-tagged human MDA-MB-231 cells xenografted in BALB/c mouse assessed as reduction in number of vessels surrounding tumor nodules by measuring CD31 expression at 10 mg/kg/3 days, ip measured after 50 days by immunostaining", "assay_type": "functional, organism-based", "conditions": "time 50.0 day"}, "MDA-MB-231 [27]": {"tested_on": "MDA-MB-231", "experiment": "Antiangiogenesis activity against luciferase-tagged human MDA-MB-231 cells xenografted in BALB/c mouse assessed as reduction in cell proliferation by measuring Ki67 expression at 10 mg/kg/3 days, ip measured after 50 days by immunostaining", "assay_type": "functional, organism-based", "conditions": "time 50.0 day"}},
  "note": "Activity calls are given as the source filed them. The calls are words filed in the database; no cut-off is given here.",
  "data": [
    {"molecule": "C[C@H](CCC(=O)OCCOCCOCCOCCN=[N+]=[N-])[C@H]1CC[C@H]2[C@@H]3CC[C@@H]4C[C@H](OC(=O)[C@H](CC(=O)O)Nc5ccc([N+](=O)[O-])c6nonc56)CC[C@]4(C)[C@H]3CC[C@]12C", "values": [
      {"measurement": "inhibition", "setting": "MDA-MB-231 [1]", "result": "Dose-dependent effect"},
      {"measurement": "IC50", "setting": "[2]", "result": 1.01, "unit": "µM"},
      {"measurement": "IC50", "setting": "[3]", "result": 4.9, "unit": "µM"},
      {"measurement": "inhibition", "setting": "[4]", "result": 0, "unit": "%"},
      {"measurement": "inhibition", "setting": "[5]", "result": 50, "unit": "%"},
      {"measurement": "Selectivity ratio", "setting": "Rattus norvegicus [6]", "result": "> 495"},
      {"measurement": "Selectivity ratio", "setting": "Rattus norvegicus [7]", "result": "< 990"},
      {"measurement": "Ratio IC50", "setting": "[8]", "result": "> 102"},
      {"measurement": "viability", "setting": "[9]", "result": "> 90", "unit": "%"},
      {"measurement": "IC50", "setting": "MDA-MB-231 [10]", "result": 12, "unit": "µM"},
      {"measurement": "inhibition", "setting": "MDA-MB-231 [11]", "result": "Active"},
      {"measurement": "inhibition", "setting": "MDA-MB-231 [12]", "result": "Active"},
      {"measurement": "inhibition", "setting": "MDA-MB-231 [13]", "result": "Dose-dependent effect"},
      {"measurement": "inhibition", "setting": "MDA-MB-231 [14]", "result": "Dose-dependent effect"},
      {"measurement": "inhibition", "setting": "MDA-MB-231 [15]", "result": "Dose-dependent effect"},
      {"measurement": "inhibition", "setting": "MDA-MB-231 [16]", "result": "Dose-dependent effect"},
      {"measurement": "inhibition", "setting": "MDA-MB-231 [17]", "result": "Dose-dependent effect"},
      {"measurement": "inhibition", "setting": "MDA-MB-231 [18]", "result": "Active"},
      {"measurement": "inhibition", "setting": "MDA-MB-231 [19]", "result": "Active"},
      {"measurement": "inhibition", "setting": "MDA-MB-231 [20]", "result": "Active"},
      {"measurement": "Papp", "setting": "[21]", "result": 9, "unit": "×10⁻⁶ cm/s"}
    ]},
    {"molecule": "CC(=O)O[C@H]1C(=O)[C@@]2(C)[C@H]([C@H](OC(=O)c3ccccc3)[C@]3(O)C[C@H](OC(=O)[C@H](O)[C@@H](NC(=O)c4ccccc4)c4ccccc4)C(C)=C1C3(C)C)[C@]1(OC(C)=O)CO[C@@H]1C[C@@H]2O", "values": [
      {"measurement": "Activity", "setting": "MDA-MB-231 [22]", "result": "Active"},
      {"measurement": "Activity", "setting": "MDA-MB-231 [23]", "result": "Active"},
      {"measurement": "Activity", "setting": "MDA-MB-231 [24]", "result": "Active"},
      {"measurement": "Activity", "setting": "MDA-MB-231 [25]", "result": "Active"},
      {"measurement": "Activity", "setting": "MDA-MB-231 [26]", "result": "Active"},
      {"measurement": "Activity", "setting": "MDA-MB-231 [27]", "result": "Active"}
    ]}
  ]
}
